# Assay results taken from BindingDB's records for patent US20240425499 (Halia Therapeutics, 2024).
# Target: T1, Tyrosine-protein kinase receptor TYRO3 (Homo sapiens, UniProt Q06418)
# T1 sequence (Q06418 whole entry): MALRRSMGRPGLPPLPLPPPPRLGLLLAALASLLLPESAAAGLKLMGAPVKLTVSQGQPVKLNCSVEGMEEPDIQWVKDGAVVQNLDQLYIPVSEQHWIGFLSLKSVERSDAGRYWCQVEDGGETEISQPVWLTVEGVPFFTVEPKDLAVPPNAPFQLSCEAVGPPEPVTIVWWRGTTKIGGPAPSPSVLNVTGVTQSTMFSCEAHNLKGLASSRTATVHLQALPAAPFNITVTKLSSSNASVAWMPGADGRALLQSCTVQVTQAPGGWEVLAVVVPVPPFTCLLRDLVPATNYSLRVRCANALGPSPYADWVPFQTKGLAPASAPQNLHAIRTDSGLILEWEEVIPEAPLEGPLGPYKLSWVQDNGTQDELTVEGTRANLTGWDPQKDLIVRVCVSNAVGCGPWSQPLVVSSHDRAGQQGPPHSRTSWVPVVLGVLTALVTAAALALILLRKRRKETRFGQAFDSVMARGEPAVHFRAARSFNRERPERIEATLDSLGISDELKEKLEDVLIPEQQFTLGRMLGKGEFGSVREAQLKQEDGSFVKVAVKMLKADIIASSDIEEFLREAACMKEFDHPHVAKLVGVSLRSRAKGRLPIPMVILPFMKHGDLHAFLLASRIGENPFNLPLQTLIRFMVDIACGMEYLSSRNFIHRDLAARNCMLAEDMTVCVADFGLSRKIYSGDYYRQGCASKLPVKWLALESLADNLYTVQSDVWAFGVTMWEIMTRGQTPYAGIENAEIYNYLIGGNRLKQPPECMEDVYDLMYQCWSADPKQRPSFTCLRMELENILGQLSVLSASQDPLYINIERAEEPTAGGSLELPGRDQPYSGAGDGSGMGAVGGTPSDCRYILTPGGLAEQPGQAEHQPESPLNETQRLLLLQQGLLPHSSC
# Assay: TYRO3 Enzymatic Assay
# Method: Poly(Glu, Tyr) sodium salt (Glu:Tyr (4:1), quality level 200, molecular weight 5,000-20,000, obtained from Sigma Aldrich, catalogue #P7244, assay concentration 0.20 mg/mL) and recombinant human TYRO3 (obtained from ThermoFisher Scientific, catalogue #PV3828, assay concentration 2 nM) were mixed in assay buffer (20 mM Hepes pH 7.5, 10 mM MgCl2, 1 mM EGTA, 0.02% Brij35, 0.02 mg/ml BSA, 0.1 mM Na3VO4, 2 mM DTT, 1% DMSO, with added MnCl2 at a final concentration of 2 mM). Compounds of interest (in DMSO, serial 3-fold dilution from 10 μM to 0.5 nM) or control (1% DMSO) were dispensed into the kinase reaction mixture by Acoustic technology (Echo550; nanoliter range). After incubation at room temperature for 20 minutes, the kinase reaction was initiated by addition of [32P]-ATP (Specific activity 10 μCi/μl) and the mixture was incubated at room temperature for 2 hours. The reaction was then stopped by spotting the reaction mixture on strips of phosphocellulose P81 paper. Following washing, the radioactivity of the P81 paper was measured and kinase activity data were expressed as the percent remaining kinase activity in test samples compared to vehicle (dimethyl sulfoxide) reactions.
row,Structure (SMILES),IC50
1,"OC1CCCN(Cc2ccc(-c3cnc4[nH]cc(-c5ccc6ocnc6c5)c4c3)cc2)C1 (stereo unspecified) [US20240425499, Compound 50]",< 0.051 µM
2,"COC1CN(Cc2ccc(-c3cnc4[nH]cc(-c5ccc6[nH]ccc6c5)c4c3)cc2)C1 [US20240425499, Compound 46]",< 0.051 µM
3,"OC1CCCN(Cc2ccc(-c3cnc4[nH]cc(-c5cc(F)cc(F)c5)c4c3)cc2)C1 (stereo unspecified) [US20240425499, Compound 12]",< 0.051 µM
4,"OC1CN(Cc2ccc(-c3cnc4[nH]cc(-c5ccc6[nH]ccc6c5)c4c3)cc2)C1 [US20240425499, Compound 44]",< 0.051 µM
5,"COc1ccc(-c2c[nH]c3ncc(-c4ccc(CN5CCCC(O)C5)cc4)cc23)cc1C#N (stereo unspecified) [US20240425499, Compound 18]",< 0.051 µM
6,"OC1CCCN(Cc2ccc(-c3cnc4[nH]cc(-c5cc(F)cc(C(F)(F)F)c5)c4c3)cc2)C1 (stereo unspecified) [US20240425499, Compound 13]",> 0.501 µM
7,"OC1CCCN(Cc2ccc(-c3cnc4[nH]cc(-c5cccc(F)c5)c4c3)cc2)C1 (stereo unspecified) [US20240425499, Compound 4]",< 0.051 µM
8,"Cc1cccc(-c2c[nH]c3ncc(-c4ccc(CN5CCCC(O)C5)cc4)cc23)c1 (stereo unspecified) [US20240425499, Compound 2]",< 0.051 µM
9,"COc1ccc(-c2c[nH]c3ncc(-c4ccc(CN5CC(CO)CC(F)(F)C5)cc4)cc23)cn1 (stereo unspecified) [US20240425499, Compound 33]",> 0.501 µM
10,"OC1CCCN(Cc2ccc(-c3cnc4[nH]cc(-c5ccc6cn[nH]c6c5)c4c3)cc2)C1 (stereo unspecified) [US20240425499, Compound 48]",< 0.051 µM
11,"COc1ccc(-c2c[nH]c3ncc(-c4ccc(CN5CCCC(F)(F)C5)cc4)cc23)cn1 [US20240425499, Compound 41]",> 0.501 µM
12,"COC1CCN(Cc2ccc(-c3cnc4[nH]cc(-c5ccc6[nH]ccc6c5)c4c3)cc2)CC1 [US20240425499, Compound 45]",< 0.051 µM
13,"OC1CCCN(Cc2ccc(-c3cnc4[nH]cc(-c5ccc(C(F)F)nc5)c4c3)cc2)C1 (stereo unspecified) [US20240425499, Compound 23]",< 0.051 µM
14,"OC1CCCN(Cc2ccc(-c3cnc4[nH]cc(-c5cnc6[nH]ccc6c5)c4c3)cc2)C1 (stereo unspecified) [US20240425499, Compound 47]",< 0.051 µM
15,"OC1CCCN(Cc2ccc(-c3cnc4[nH]cc(-c5cc(F)c6ocnc6c5)c4c3)cc2)C1 (stereo unspecified) [US20240425499, Compound 52]",< 0.051 µM
16,"COc1ccc(-c2c[nH]c3ncc(-c4ccc(CN5CC(O)CC(F)(F)C5)cc4)cc23)cn1 (stereo unspecified) [US20240425499, Compound 31]",> 0.501 µM
17,"N#Cc1cccc(-c2c[nH]c3ncc(-c4ccc(CN5CCCC(O)C5)cc4)cc23)c1 (stereo unspecified) [US20240425499, Compound 15]",< 0.051 µM
18,"OC1CCCN(Cc2ccc(-c3cnc4[nH]cc(-c5cccc(C(F)F)c5)c4c3)cc2)C1 (stereo unspecified) [US20240425499, Compound 9]",< 0.051 µM
19,"CN(C)Cc1ccc(-c2c[nH]c3ncc(-c4ccc(CN5CCCC(O)C5)cc4)cc23)cc1 (stereo unspecified) [US20240425499, Compound 17]",< 0.051 µM
20,"Oc1ccc(-c2c[nH]c3ncc(-c4ccc(CN5CCCC(O)C5)cc4)cc23)cc1 (stereo unspecified) [US20240425499, Compound 16]",< 0.051 µM
21,"N#Cc1ccc(-c2c[nH]c3ncc(-c4ccc(CN5CCCC(O)C5)cc4)cc23)cc1 (stereo unspecified) [US20240425499, Compound 14]",< 0.051 µM
22,"OC1CCCN(Cc2ccc(-c3cnc4[nH]cc(-c5cccc6[nH]ncc56)c4c3)cc2)C1 (stereo unspecified) [US20240425499, Compound 49]",< 0.051 µM
23,"Cc1nc2cc(-c3c[nH]c4ncc(-c5ccc(CN6CCCC(O)C6)cc5)cc34)ccc2o1 (stereo unspecified) [US20240425499, Compound 51]",< 0.051 µM

# More lines, now with the values ahead:
row,IC50,Structure (SMILES)
1,< 0.051 µM,"OC1CCN(Cc2ccc(-c3cnc4[nH]cc(-c5ccc6[nH]ccc6c5)c4c3)cc2)CC1 [US20240425499, Compound 78]"
2,< 0.051 µM,"OC1CCCN(Cc2ccc(-c3cnc4[nH]cc(-c5ccc6c(c5)CCNC6)c4c3)cc2)C1 (stereo unspecified) [US20240425499, Compound 80]"
3,< 0.051 µM,"COCc1[nH]c2ncc(-c3ccc(CN4CCCC(O)C4)cc3)cc2c1-c1ccnc(F)c1 (stereo unspecified) [US20240425499, Compound 65]"
4,< 0.051 µM,"CCOCc1[nH]c2ncc(-c3ccc(CN4CCCC(O)C4)cc3)cc2c1-c1cccc(F)c1 (stereo unspecified) [US20240425499, Compound 67]"
5,< 0.051 µM,"CC(C)(O)c1ccc(-c2c[nH]c3ncc(-c4ccc(CN5CCCC(O)C5)cc4)cc23)cc1 (stereo unspecified) [US20240425499, Compound 85]"
6,< 0.051 µM,"CCc1[nH]c2ncc(-c3ccc(CN4CCCC(O)C4)cc3)cc2c1-c1cccc(F)c1 (stereo unspecified) [US20240425499, Compound 57]"
7,< 0.051 µM,"Cc1nc2cc(-c3c[nH]c4ncc(-c5ccc(CN6CCCC(O)C6)cc5)cc34)cnc2o1 (stereo unspecified) [US20240425499, Compound 84]"
8,> 0.501 µM,"CN(C)Cc1[nH]c2ncc(-c3ccc(CN4CCCC(O)C4)cc3)cc2c1-c1cccc(F)c1 (stereo unspecified) [US20240425499, Compound 87]"
9,< 0.051 µM,"COc1ccc(-c2c(Cl)[nH]c3ncc(-c4ccc(CN5CCCC(O)C5)cc4)cc23)cn1 (stereo unspecified) [US20240425499, Compound 56]"
10,< 0.051 µM,"CCc1[nH]c2ncc(-c3ccc(CN4CCCC(O)C4)cc3)cc2c1-c1ccnc(C(F)F)c1 (stereo unspecified) [US20240425499, Compound 61]"
11,< 0.051 µM,"CCc1[nH]c2ncc(-c3ccc(CN4CCCC(O)C4)cc3)cc2c1-c1ccnc(F)c1 (stereo unspecified) [US20240425499, Compound 60]"
12,> 0.501 µM,"COc1ccc(-c2c[nH]c3ncc(-c4ccc(N5CCC(C)(O)CC5)cc4)cc23)cn1 [US20240425499, Compound 72]"
13,< 0.051 µM,"OC1CCCN(Cc2ccc(-c3cnc4[nH]c(-c5ccoc5)c(-c5ccnc(F)c5)c4c3)cc2)C1 (stereo unspecified) [US20240425499, Compound 86]"
14,< 0.051 µM,"OCc1ccc(-c2c[nH]c3ncc(-c4ccc(CN5CCCC(O)C5)cc4)cc23)cc1 (stereo unspecified) [US20240425499, Compound 83]"
15,< 0.051 µM,"c1cc2cc(-c3c[nH]c4ncc(-c5ccc(CN6CCCCC6)cc5)cc34)ccc2[nH]1 [US20240425499, Compound 79]"
16,< 0.051 µM,"CCc1[nH]c2ncc(-c3ccc(CN4CCCC(O)C4)cc3)cc2c1-c1ccc(C(F)F)nc1 (stereo unspecified) [US20240425499, Compound 58]"
17,< 0.051 µM,"OC1CCCN(Cc2ccc(-c3cnc4[nH]c(CC5CC5)c(-c5cccc(F)c5)c4c3)cc2)C1 (stereo unspecified) [US20240425499, Compound 90]"
18,< 0.051 µM,"COCc1[nH]c2ncc(-c3ccc(CN4CCCC(O)C4)cc3)cc2c1-c1cccc(F)c1 (stereo unspecified) [US20240425499, Compound 63]"
19,< 0.051 µM,"CC1(O)CCN(Cc2ccc(-c3cnc4[nH]cc(-c5ccc6[nH]ccc6c5)c4c3)cc2)CC1 [US20240425499, Compound 76]"
20,< 0.051 µM,"N#Cc1cc(-c2c[nH]c3ncc(-c4ccc(CN5CCCC(O)C5)cc4)cc23)ccc1O (stereo unspecified) [US20240425499, Compound 53]"
21,< 0.051 µM,"COCc1[nH]c2ncc(-c3ccc(CN4CCCC(O)C4)cc3)cc2c1-c1ccnc(C(F)F)c1 (stereo unspecified) [US20240425499, Compound 66]"
22,< 0.051 µM,"CCc1[nH]c2ncc(-c3ccc(CN4CCCC(O)C4)cc3)cc2c1-c1ccc(OC)nc1 (stereo unspecified) [US20240425499, Compound 59]"
23,< 0.051 µM,"COc1ccc(-c2c[nH]c3ncc(-c4ccc(C(C)N5CCCC(O)C5)cc4)cc23)cn1 (stereo unspecified) [US20240425499, Compound 75]"
